“And” between values parts separate entries of the source, which are not always exact repeats. Equal values may be shown once. Where a name gives a salt, the structure may show the parent alone. Read-outs that look alike come from different tables or passages of the source.
Tests used:
[1] = test system: sc colon adenocarcinoma 51; format: in vivo, mouse; conditions: for Tumor growth inhibition (TGI) / Mice without Palpable Tumors: sc Colon 51; for Tumor growth inhibition (TGI): H/ip (every 3 hours x4 on Days 3, 10, 14 and 24); for Mice without Palpable Tumors: H/ip
Source text: The inoculum varies with the tumor.

ip L1210 leukemia = assay: ip-implanted L1210 leukemia in mice; conditions: mouse, in vivo, ip;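 further: each mouse received 10^6 L1210 cells intraperitoneally, with drug treatment also given by the i.p. route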
Protocol: For in vivo studies L1210 cells were implanted i.p. (10^6 per mouse)
and drugs were administered i.p. on Days 1 and 5. Increase in lifespan
(ILS) was based on median survival time of groups of 6 mice treated at th
maximally tolerated dose of the drugs.

[2] = test system: NRK52E (rat kidney epithelium); assay: Cytotoxicity to normal rodent cells in culture; format: cell-based; conditions: NRK-52E
Protocol: (§1) The cell lines are used and maintained as monolayer cultures in Minimal Essential Media (Grand Island Biological Co., Grand Island, N.Y.) supplemented with 10% fetal calf serum in a 5% CO2 humidified incubator at 37° C. Various concentrations of a Formula (I) compound under sterile conditions were allowed to react for 2 hours followed by aspiration of medium or were exposed continuously. Plates are incubated for 7 days at 37° C. in a CO2 incubator. Medium was aspirated and cells were fixed and stained with ethanol and Geisma stain. The surviving cell population was determined by scanning the plates with an image analyzer. The percent inhibition of proliferation was determined relative to cells incubated in the absence of drug and the 50 percent inhibitory concentration (IC50) was determined by interpolation.

[3] = test system: IEC-6 (rat intestinal epithelium); assay: Cytotoxicity to normal rodent cells in culture; format: cell-based
Protocol: as §1

SW-948 = assay: Cytotoxicity to tumor cells in culture; format: cell-based; conditions: Homo sapiens
Protocol: as §1

SKCO-1 = assay: Cytotoxicity to tumor cells in culture; format: cell-based; conditions: Homo sapiens
Protocol: as §1

LOVO = assay: Cytotoxicity to tumor cells in culture; format: cell-based; conditions: Homo sapiens
Protocol: as §1

B16 Melanoma = assay: Cytotoxicity to tumor cells in culture; format: cell-based; conditions: Mus musculus, continuous exposure
Protocol: as §1

HT-29 = assay: Cytotoxicity to tumor cells in culture; format: cell-based; conditions: Homo sapiens
Protocol: as §1

DLD-1 = assay: Cytotoxicity to tumor cells in culture; format: cell-based; conditions: Homo sapiens
Protocol: as §1

L1210 Leukemia = assay: Cytotoxicity to tumor cells in culture; format: cell-based; conditions: Mus musculus, 2 hr exposure
Protocol: as §1

K12/Tr Colon Carcinoma = assay: Cytotoxicity to tumor cells in culture; format: cell-based; conditions: K12/Tr rat colon carcinoma
Protocol: as §1

CACO-2 = assay: Cytotoxicity to tumor cells in culture; format: cell-based; conditions: Homo sapiens
Protocol: as §1

iv P388 leukemia = conditions: mouse, in vivo
Source text: Tumors used in these studies P388 leukemia, L1210 leukemia and Lewis lung carcinoma--are maintained by serial transplantation in syngeneic strains of mice, DBA/2 for the leukemias and C57B1/6 for Lewis lung carcinoma. The leukemias are serially transplanted i.p. as ascites cell suspensions while the Lewis lung carcinoma is serially transplanted as a s.c. solid tumor.
For therapeutic trials, tumors were aseptically removed from donor mice and prepared as suspensions for implantation into test animals which for each tumor are syngeneic female F1 hybrid B6D2F1 mice (C57B1/6×DBA/2). The inoculum level varies with the type of tumor: P388 leukemia is inoculated at 10^6 cells per mouse, L1210 leukemia at 10^5 or 10^6 cells per mouse, and Lewis lung carcinoma at 0.25 ml of a 10 percent (w:v) brei. […] After tumor inoculation, mice are randomized to treatment groups of 6 to 8 mice each. In each experiment, there are three groups of untreated control mice.
Drugs are dissolved or suspended in appropriate aqueous vehicles and given i.p. or i.v. on various treatment schedules over a range of dosage levels. Animals are housed in shoebox cages and monitored daily for mortality for 30 (L1210), 45 (P388) or 60 (Lewis lung) days.

ip B16 melanoma = conditions: mouse, in vivo
Source text: Tumors used in these studies--P388 leukemia and its doxorbicin--and mitoxanrone-resistant sublines, L1210 leukemia, B16 melanoma, B16 melanoma/F10 subline, M5076 sarcoma and colon carcinoma 26--are maintained by serial transplantation in syngeneic strains of mice. For the leukemias, these tumors are maintained in DBA/2 mice. The M5076 sarcoma, the B16 melanoma and its F10 subline are maintained in C57B1/6 mice and the colon sarcinoma 26 is maintained in BALB/c mice. The leukemias and the M5076 sarcoma are serially transplanted i.p. as ascites cell suspensions while the B16 melanoma lines and the colon carcinoma 26 are serially transplanted as s.c. solid tumors.
For therapeutic trials, tumors are aseptically removed from donor mice and prepared as suspensions for implantation ip into test animals. The test animals for the colon carcinoma 26 are female BALB/c mice (20-25 gm). The test animals for the other tumor models are syngeneic female F1 hybrid B6D2F1 mice (C57B1/6 x DBA/2). The inoculum level varies with the type of tumor: P388 leukemia is inoculated at 10^6 cells per mouse, L1210 leukemia at 10^5 or 10^6 cells per mouse, M5076 sarcoma at 5×10^6 cells per mouse. For implantation of the B16 melanoma lines and the colon carcinoma 26, s.c. tumors from donor mice are minced and homogenized in loose fitting teflon glass homogenizer to give a tumor brei. The inoculum levels are 0.5 ml of a 10 percent (w:v) brei of the B16 melanoma lines and 0.5 ml of a 5 percent (w:v) brei of colon carcinoma 26. After tumor inoculation, mice randomized to treatment groups comprised of 6-8 mice each. In each experiment, there are three groups of untreated control mice. Drugs are dissolved or suspended in appropriate aqueous vehicles and given by a variety of routes and schedules of administration over a range of dose levels. Animals are housed in shoebox cages and are monitored daily for mortality for 30 (L1210), 45 (P388) or 60 (B16, M5076, colon 26) days.

[4] = 2 hr exposure, read-out: IC50 2 Hr. Exposure
[5] = continuous exposure, read-out: IC50 Continuous Exposure
[6] = 2 hr exposure, 7-day incubation, read-out: IC50 2 Hr. Exposure
[7] = 168 h, continuous 7-day exposure, read-out: IC50 Continuous Exposure

Q: For `CC[C@@]1(O)C(=O)OCc2c1cc1n(c2=O)Cc2cc3c(CN(C)C)c(O)ccc3nc2-1` [Compound No. 1S, (20 S) 9-Dimethylaminomethyl-10-hydroxycamptothecin Acetate Salt], which “Tumor growth inhibition (TGI)” value ([1]; 0.78 mg/kg/injection) is on record?
A: 73%

Q: And the “Tumor growth inhibition (TGI)” value ([1]; 1.3 mg/kg/injection)?
A: 88%

Q: And the “Tumor growth inhibition (TGI)” value ([1]; 2.2 mg/kg/injection)?
A: 89%

Q: And the “Tumor growth inhibition (TGI)” value ([1]; 3.6 mg/kg/injection)?
A: 92%

Q: What about the “Mice without Palpable Tumors” value ([1]; 0.78 mg/kg/injection) of the same compound?
A: 1/8

Q: And the “Mice without Palpable Tumors” value ([1]; 1.3 mg/kg/injection)?
A: 3/8

Q: What about the “Mice without Palpable Tumors” value ([1]; 2.2 mg/kg/injection) of the same compound?
A: 4/8

Q: What about the “Mice without Palpable Tumors” value ([1]; 3.6 mg/kg/injection) of the same compound?
A: 4/8

Q: And the “Increase in Lifespan (ILS) or Inhibition of Tumor Growth (TGI)” value (shortened to “Increase in Lifespan (ILS) or Inhibition”) ([1]; sc Colon Adenocarcinoma 51, optimal doses and optimal schedules)?
A: 92 % TGI

Q: And the “Increase in Lifespan (ILS) or Inhibition” value (ip L1210 leukemia)?
A: Curative

Q: And the “Increase in lifespan (ILS)” value (ip L1210 leukemia; 3.2 mg/kg)?
A: 31%

Q: What about the “Increase in lifespan (ILS)” value (ip L1210 leukemia; 5.4 mg/kg) of the same compound?
A: 81%

Q: And the “Increase in lifespan (ILS)” value (ip L1210 leukemia; 9 mg/kg)?
A: 138%

Q: And the “Increase in lifespan (ILS)” value (ip L1210 leukemia; 15 mg/kg)?
A: 219%

Q: And the “Long-Term Survivors” value (ip L1210 leukemia; 15 mg/kg)?
A: 2/6

Q: And the “Increase in lifespan (ILS)” value (ip L1210 leukemia; 25 mg/kg)?
A: toxic

Q: What about the “long term survivors at the maximally tolerated doses” value (ip L1210 leukemia; Acetate Salt) of the same compound?
A: 1/6 and 0/6 and 2/6 and 5/6

Q: What about the IC50 [2, 4] of the same compound?
A: 1.2 µg/mL

Q: And the IC50 [2, 5]?
A: 0.052 µg/mL

Q: And the IC50 [3, 4]?
A: 3.9 µg/mL

Q: And the IC50 [3, 5]?
A: 0.017 µg/mL

Q: What about the IC50 (SW-948; SW948, 2 hr exposure, 7-day incubation, read-out: IC50 2 Hr. Exposure) of the same compound?
A: 0.26 µg/mL

Q: And the IC50 (SW-948; SW948, 168 h, continuous 7-day exposure, read-out: IC50 Continuous Exposure)?
A: 0.016 µg/mL

Q: What about the IC50 (SKCO-1; SK-CO-1, 2 hr exposure, 7-day incubation, read-out: IC50 2 Hr. Exposure) of the same compound?
A: 0.23 µg/mL

Q: What about the IC50 (SKCO-1; SK-CO-1, 168 h, continuous 7-day exposure, read-out: IC50 Continuous Exposure) of the same compound?
A: 0.0039 µg/mL

Q: What about the IC50 (LOVO; [6]) of the same compound?
A: 0.58 µg/mL

Q: And the IC50 (LOVO; [7])?
A: 0.0097 µg/mL

Q: And the IC50 (B16 Melanoma)?
A: 0.62 µg/mL

Q: What about the IC50 (HT-29; [6]) of the same compound?
A: 0.58 µg/mL

Q: What about the IC50 (HT-29; [7]) of the same compound?
A: 0.016 µg/mL

Q: What about the IC50 (DLD-1; [6]) of the same compound?
A: 0.44 µg/mL

Q: What about the IC50 (DLD-1; [7]) of the same compound?
A: 0.015 µg/mL

Q: What about the IC50 (L1210 Leukemia) of the same compound?
A: 1.4 µg/mL

Q: What about the IC50 (K12/Tr Colon Carcinoma; [4]) of the same compound?
A: 3.9 µg/mL

Q: And the IC50 (K12/Tr Colon Carcinoma; [5])?
A: 0.084 µg/mL

Q: What about the IC50 (CACO-2; [6]) of the same compound?
A: 1.7 µg/mL

Q: And the IC50 (CACO-2; [7])?
A: 0.075 µg/mL

Q: And the “Increase in lifespan (ILS)” value (iv P388 leukemia; 3.2 mg/kg)?
A: 42%

Q: What about the “Increase in lifespan (ILS)” value (iv P388 leukemia; 5.4 mg/kg) of the same compound?
A: 58%

Q: And the ILS (iv P388 leukemia; 15 mg/kg)?
A: 125

Q: And the “Increase in lifespan (ILS)” value (iv P388 leukemia; 15 mg/kg)?
A: 132%

Q: What about the cures (iv P388 leukemia; 15 mg/kg) of the same compound?
A: 1/6

Q: And the “Long-Term Survivors” value (iv P388 leukemia; 25 mg/kg)?
A: 2/6

Q: What about the “Increase in Lifespan (ILS) or Inhibition” value (iv P388 leukemia; iv) of the same compound?
A: Curative

Q: And the “Increase in lifespan (ILS)” value (iv P388 leukemia; iv, 7.9 mg/kg)?
A: 65%

Q: What about the “Increase in lifespan (ILS)” value (iv P388 leukemia; iv, 14 mg/kg) of the same compound?
A: 145%

Q: And the “Long-Term Survivors” value (iv P388 leukemia; iv, 19 mg/kg)?
A: 2/6

Q: What about the “Increase in lifespan (ILS)” value (iv P388 leukemia; iv, 25 mg/kg) of the same compound?
A: toxic

Q: And the ILS (ip B16 melanoma)?
A: 130

Q: And the “Increase in Lifespan (ILS) or Inhibition” value (ip B16 melanoma; ip)?
A: 152 % ILS

Q: What about the “Increase in lifespan (ILS)” value (ip B16 melanoma; ip, 3.2 mg/kg) of the same compound?
A: 43%

Q: And the “Increase in lifespan (ILS)” value (ip B16 melanoma; ip, 5.4 mg/kg)?
A: 52%

Q: What about the “Increase in lifespan (ILS)” value (ip B16 melanoma; ip, 25 mg/kg) of the same compound?
A: toxic

Reference: patent US5004758A, “Water soluble camptothecin analogs useful for inhibiting the growth of animal tumor cells” (priority 1988, dated 1991)
